The source of these data is patent US20120252792A1, “METHODS AND COMPOSITIONS FOR MODULATING RHO-MEDIATED GENE TRANSCRIPTION” (THE REGENTS OF THE UNIVERSITY OF MICHIGAN, priority 2009, published 2012).

Molecules are shown by their SMILES. Where only a bound is given, the exact number is not on record here.

The test system of one experiment is Rho/MKL1 pathway. Put plainly: SRE.L-firefly luciferase reporter (dual luciferase assay), Gα12QL-transfected PC-3 cells. In kind it is cell-based, human. The following applies: Homo sapiens; for inhibition at 10 µM / inhibition at 100 µM: DMSO alone = 0%; for inhibition at 10 µM: read-out: % inh SRE.L (10 μM); for inhibition at 100 µM: read-out: % inh SRE.L (100 μM). Here is the method: Dual Luciferase Assay: Seed PC-3 prostate cancer cells (40,000 cells/well) were grown in 96-well plates in 10% FBS containing DMEM medium. Cells were transiently transfected with the Gα12QL activator of the Rho/MKL1 pathway, along with the SRE.L-firefly luciferase reporter construct for 6 hours. Additionally, cells were co-transfected with the TK-Renilla luciferase reporter as an indicator of non-specific compound effects. Various concentrations of selected compounds were added to the 96-well plates. Plates were incubated for 19 hours at 37° C. and 5% CO2 in 0.5% FBS containing DMEM medium. Cells were lysed with 1X Passive Lysis Buffer (Promega). Plates were incubated for 30 minutes at room temperature. Luminescence counts were read with a Victor2 (Perkin-Elmer) plate reader.
In general terms: A reporter such as luciferase makes a cellular process visible.

Experiment [1] relates to PC-3 prostate cancer cells. Description: WST1 cell viability assay. The class given is cell-based, human. The following applies: Homo sapiens, PC-3 cells, just before lysis; for inhibition at 10 µM: PC-3, 10 μM, read-out: % inh WST-1 (10 μM); for inhibition at 100 µM: PC-3, 100 μM, read-out: % inh WST-1 (100 μM). The protocol:
WST1 Cell Viability Assay: One hour prior to cell lysis for the dual luciferase assay, 10 μl per well of WST1 reagent (Roche) was added to the 96-well plates. Plates were incubated for 1 hour at 37° C. and 5% CO2. Cell viability was measured by WST1 absorbance at 450 nm with a Victor2 (Perkin-Elmer) plate reader.

The term IC50 denotes the concentration that inhibits the measured activity by half.

As for `O=C(NC1CC(=O)N(c2ccc(Cl)cc2)C1)OCc1ccccc1` (stereo not shown) [Compound 31, Benzyl 1-(4-chlorophenyl)-5-oxopyrrolidin-3-ylcarbamate], in the experiment with Rho/MKL1 pathway (19 h), the IC50 stood at 54.7 µM.

As for `CC(C)(C)OC(=O)NC1CCN(c2ccc(Cl)cc2)C1` (stereo not shown) [Compound 57, tert-butyl (1-(4-chlorophenyl)pyrrolidin-3-yl)carbamate], in the experiment on Rho/MKL1 pathway (19 h), the inhibition at 10 µM is -44.4% and the inhibition at 100 µM was 18.7%. Moreover, in experiment [1], the inhibition at 10 µM stood at 9.2% and the inhibition at 100 µM stood at 21.1%.

For `COc1cc(NCCCNC(=O)c2cc(C(F)(F)F)cc(C(F)(F)F)c2)ccc1Cl` [Compound 21, N-(3-(4-chloro-3-methoxyphenylamino)propyl)-3,5-bis(trifluoromethyl)benzamide], in the experiment with Rho/MKL1 pathway (19 h), the IC50 is 7.3 µM.

Turning to `COc1cc(N2CC(NC(=O)c3cc(C(F)(F)F)cc(C(F)(F)F)c3)CC2=O)ccc1Cl` (stereo not shown) [Compound 52, N-(1-(4-chloro-3-methoxyphenyl)-5-oxopyrrolidin-3-yl)-3,5-bis(trifluoromethyl)benzamide], the figures for the inhibition at 10 µM (in the experiment with Rho/MKL1 pathway (19 h); in experiment [1]) were -18.4% and -0.3%, respectively. In addition, the inhibition at 100 µM in the experiment with Rho/MKL1 pathway (19 h) amounted to 16.9%; in experiment [1], 42.2%.

As for `O=C(NC1CC(=O)N(c2ccc(Cl)cc2)C1)OCc1cc(C(F)(F)F)cc(C(F)(F)F)c1` (stereo not shown) [Compound 45, 3,5-bis(trifluoromethyl)benzyl (1-(4-chlorophenyl)-5-oxopyrrolidin-3-yl)carbamate], in the experiment on Rho/MKL1 pathway (19 h), the IC50 came out at 13.4 µM, the inhibition at 10 µM was found to be 9.4% and the inhibition at 100 µM was found to be 68%. Moreover, in experiment [1], the inhibition at 10 µM came to 0.6% and the inhibition at 100 µM turned out to be 8.4%.

For the molecule `O=C(Nc1cc(C(F)(F)F)cc(C(F)(F)F)c1)C1CC(=O)N(c2ccc(Cl)cc2)C1` (stereo not shown) [Compound 51, N-(3,5-bis(trifluoromethyl)phenyl)-1-(4-chlorophenyl)-5-oxopyrrolidine-3-carboxamide], in the experiment with Rho/MKL1 pathway (19 h), the inhibition at 10 µM was 74.3% and the inhibition at 100 µM is 99.2%. Also, in experiment [1], the inhibition at 10 µM was 55.9% and the inhibition at 100 µM is 74.6%.

On to `O=C(NC1CC(=O)N(c2ccc(Cl)cc2)C1)c1cc(C(F)(F)F)cc(C(F)(F)F)c1` (stereo not shown) [Compound 47, N-(1-(4-chlorophenyl)-5-oxopyrrolidin-3-yl)-3,5-bis(trifluoromethyl)benzamide], for which, in the experiment on Rho/MKL1 pathway (19 h), the IC50 turned out to be 18 µM, the inhibition at 10 µM came out at 18% and the inhibition at 100 µM was determined as 57.8%. In addition, in experiment [1], the inhibition at 10 µM is -0.8% and the inhibition at 100 µM is 14.3%.

The molecule `O=C(NCCc1cn(-c2ccc(Cl)cc2)nn1)c1cc(C(F)(F)F)cc(C(F)(F)F)c1` [Compound 41] showed an IC50 in the experiment with Rho/MKL1 pathway (19 h) above 100 µM.

As to `O=C(NCC1CCN(c2ccc(Cl)cc2)C1=O)c1cc(C(F)(F)F)cc(C(F)(F)F)c1` (stereo not shown) [Compound 53, N-((1-(4-chlorophenyl)-2-oxopyrrolidin-3-yl)methyl)-3,5-bis(trifluoromethyl)benzamide], in the experiment on Rho/MKL1 pathway (19 h), the inhibition at 10 µM was found to be 14.1% and the inhibition at 100 µM stood at 32.3%. In experiment [1], the inhibition at 10 µM is 7.9% and the inhibition at 100 µM amounted to 26.9%.

For `O=C(c1cc(C(F)(F)F)cc(C(F)(F)F)c1)N1CCC(Nc2ccc(Cl)cc2)CC1` [Compound 17, (3,5-bis(trifluoromethyl)phenyl)(4-(4-chlorophenylamino)piperidin-1-yl)methanone], 10.8 µM corresponded to half-maximal inhibition with Rho/MKL1 pathway (19 hrs) (IC50).

For `O=C(CCNC(=O)c1cc(C(F)(F)F)cc(C(F)(F)F)c1)NCc1ccc(Cl)cc1` [Compound 25, N-(3-(4-chlorobenzylamino)-3-oxopropyl)-3,5-bis(trifluoromethyl)benzamide], the midpoint of inhibition with Rho/MKL1 pathway (19 h), the IC50, lay at 5 µM.

In the case of `COc1ccc(NC(=O)C2CCCN(C(=O)c3cc(C(F)(F)F)cc(C(F)(F)F)c3)C2)cc1Cl` (stereo not shown) [Compound 12, 1-(3,5-bis(trifluoromethyl)benzoyl)-N-(3-chloro-4-methoxyphenyl)piperidine-3-carboxamide], the IC50 with Rho/MKL1 pathway (19 h) is 6 µM.

For `O=C(N[C@@H]1CCC[C@@H]1C(=O)Nc1ccc(Cl)cc1)c1cc(C(F)(F)F)cc(C(F)(F)F)c1` [Compound 39], the IC50 in the experiment with Rho/MKL1 pathway (19 h) was above 100 µM.

`O=C1CC(NC(=O)c2cc(C(F)(F)F)cc(C(F)(F)F)c2)c2cc(Cl)ccc2N1` (stereo not shown) [Compound 48, N-(6-chloro-2-oxo-1,2,3,4-tetrahydroquinolin-4-yl)-3,5-bis(trifluoromethyl)benzamide]: in the experiment on Rho/MKL1 pathway (19 h), the inhibition at 10 µM was 4.9% and the inhibition at 100 µM was determined as 2.5%. Moreover, in experiment [1], the inhibition at 10 µM came to 4.3% and the inhibition at 100 µM was -2.7%.

As to `COc1ccc(N2CC(NC(=O)c3cc(C(F)(F)F)cc(C(F)(F)F)c3)CC2=O)cc1Cl` (stereo not shown) [Compound 55, N-(1-(3-chloro-4-methoxyphenyl)-5-oxopyrrolidin-3-yl)-3,5-bis(trifluoromethyl)benzamide], in the experiment with Rho/MKL1 pathway (19 h), the inhibition at 10 µM worked out at 4.5% and the inhibition at 100 µM is 26%. Besides, in experiment [1], the inhibition at 10 µM was found to be 7.4% and the inhibition at 100 µM was found to be 23.9%.

Molecule `COc1ccc(NCCCNC(=O)c2cc(C(F)(F)F)cc(C(F)(F)F)c2)cc1Cl` [Compound 20, N-(3-(3-chloro-4-methoxyphenylamino)propyl)-3,5-bis(trifluoromethyl)benzamide] showed an IC50 with Rho/MKL1 pathway (19 h) of 9.9 µM.

In the case of `FC(F)(F)c1cc(CN2CCCC(CNc3ccc(Cl)cc3)C2)cc(C(F)(F)F)c1` (stereo not shown) [Compound 50, N-((1-(3,5-bis(trifluoromethyl)benzyl)piperidin-3-yl)methyl)-4-chloroaniline], in the experiment with Rho/MKL1 pathway (19 h), the inhibition at 10 µM is 0.9% and the inhibition at 100 µM came out at 70.2%. In experiment [1], the inhibition at 10 µM is 20.9% and the inhibition at 100 µM turned out to be 32.2%.

As to `O=C(NC1CC(=O)N(c2ccc(Cl)cc2)C1)c1cc(F)cc(F)c1` (stereo not shown) [Compound 49, N-(1-(4-chlorophenyl)-5-oxopyrrolidin-3-yl)-3,5-difluorobenzamide], the inhibition at 10 µM with Rho/MKL1 pathway (19 h) was -8.4%; in experiment [1], -6.1%. Further, the figures for the inhibition at 100 µM (with Rho/MKL1 pathway (19 h); in experiment [1]) were 13.4% and 0.6%, respectively.

Consider `O=C(NC1CC(=O)N(c2ccc(Cl)cc2)C1)OCc1cc(F)cc(F)c1` (stereo not shown) [Compound 46, 3,5-difluorobenzyl (1-(4-chlorophenyl)-5-oxopyrrolidin-3-yl)carbamate], for which, in the experiment on Rho/MKL1 pathway (19 h), the inhibition at 10 µM was 13.7% and the inhibition at 100 µM worked out at 76.1%. Besides, in experiment [1], the inhibition at 10 µM is 0.1% and the inhibition at 100 µM came to 67.5%.

In the experiment with Rho/MKL1 pathway (19 h), `CN(C(=O)CONC(=O)c1cc(C(F)(F)F)cc(C(F)(F)F)c1)c1ccc(Cl)cc1` [Compound 11, N-(2-((4-chlorophenyl)(methyl)amino)-2-oxoethoxy)-3,5-bis(trifluoromethyl)benzamide] yielded an IC50 of 111 µM.

As to `COc1ccc(NC(=O)CCNC(=O)c2cc(C(F)(F)F)cc(C(F)(F)F)c2)cc1Cl` [Compound 13, N-(3-(3-chloro-4-methoxyphenylamino)-3-oxopropyl)-3,5-bis(trifluoromethyl)benzamide], half-maximal inhibition in the experiment on Rho/MKL1 pathway (19 h) (IC50) was put at 142 µM.

With `COc1ccc(NC(=O)CONC(=O)c2cc(C(F)(F)F)cc(C(F)(F)F)c2)cc1Cl` [Compound 9, N-(2-(3-chloro-4-methoxyphenylamino)-2-oxoethoxy)-3,5-bis(trifluoromethyl)benzamide], half-maximal inhibition in the experiment on Rho/MKL1 pathway (19 h) (IC50) was put at 11.4 µM.

For the molecule `O=C(c1cc(C(F)(F)F)cc(C(F)(F)F)c1)N1CCC(=O)N(c2ccc(Cl)cc2)CC1` [Compound 24, 1-(3,5-bis(trifluoromethyl)benzoyl)-4-(4-chlorophenyl)-1,4-diazepan-5-one], in the experiment with Rho/MKL1 pathway (19 h), the IC50 is above 100 µM and the inhibition at 100 µM was determined as 30%.

As to `O=C(NC1CCN(c2ccc(Cl)cc2)C1)c1cc(C(F)(F)F)cc(C(F)(F)F)c1` (stereo not shown) [Compound 58, N-(1-(4-chlorophenyl)pyrrolidin-3-yl)-3,5-bis(trifluoromethyl)benzamide], in the experiment with Rho/MKL1 pathway (19 h), the inhibition at 10 µM was -4.6% and the inhibition at 100 µM came out at 10.5%. Further, in experiment [1], the inhibition at 10 µM is -10.5% and the inhibition at 100 µM was -1.7%.

`O=C(NCCCNc1ccc(Cl)nc1)c1cc(C(F)(F)F)cc(C(F)(F)F)c1` [Compound 42, N-(3-((6-chloropyridin-3-yl)amino)propyl)-3,5-bis(trifluoromethyl)benzamide]: in the experiment on Rho/MKL1 pathway (19 h), half-maximal inhibition (IC50) required 24.4 µM, the inhibition at 10 µM was -1.7% and the inhibition at 100 µM turned out to be 95.1%. In experiment [1], the inhibition at 10 µM was -7.4% and the inhibition at 100 µM came out at 64.7%.

Consider `O=C(CCc1cn(-c2cc(C(F)(F)F)cc(C(F)(F)F)c2)nn1)Nc1ccc(Cl)cc1` [Compound 40], for which the IC50 in the experiment with Rho/MKL1 pathway (19 h) was above 100 µM.

Regarding `O=C(Nc1ccc(Cl)cc1)C1CCCN(C(=O)c2cc(C(F)(F)F)cc(C(F)(F)F)c2)C1` (stereo not shown) [Compound 4, 1-(3,5-bis(trifluoromethyl)benzoyl)-N-(4-chlorophenyl)piperidine-3-carboxamide], in experiment [1], the inhibition at 10 µM was 0% and the inhibition at 100 µM came out at 14%.

Take `O=C(NCCCNc1ccc(Cl)cc1)c1cc(F)cc(F)c1` [Compound 43, N-(3-((4-chlorophenyl)amino)propyl)-3,5-difluorobenzamide]: in the experiment on Rho/MKL1 pathway (19 h), the IC50 is 34.7 µM, the inhibition at 10 µM is -6.5% and the inhibition at 100 µM turned out to be 95.7%. Moreover, in experiment [1], the inhibition at 10 µM was -9.9% and the inhibition at 100 µM came to 73%.
